From ChEMBL document CHEMBL1201862, “PubChem BioAssay data set” (2004)
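Where inhibition never reached the appropriate level, the endpoint shown equals the highest concentration tested. Otherwise, values were interpolated linearly from a five-concentration, 48-hour dose response in 96-well plates. GI50 marks 50% less growth.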 Activity calls are given as the source filed them. Rule as the data show it: active = GI50 up to about 1.1 µM and inactive = higher.

Columns and labels:
Test in all cases: NCI anticancer screen, dose series, 48 h
HOP-62 = system: HOP-62
SNB-19 = system: SNB-19
SNB-75 = system: SNB-75
HOP-92 = system: HOP-92
Hs-578T = system: Hs-578T
MDA-MB-435 = system: MDA-MB-435
EKVX = system: EKVX
A498 = system: A498
OVCAR-4 = system: OVCAR-4
NCI-H522 = system: NCI-H522
HT-29 = system: HT-29
MDA-MB-231 = system: MDA-MB-231
PC-3 = system: PC-3
TK-10 = system: TK-10
786-0 = system: 786-0
T47D = system: T47D
KM12 = system: KM12
ACHN = system: ACHN
SN12C = system: SN12C
SK-OV-3 = system: SK-OV-3
RXF 393 = system: RXF 393
U-251 = system: U-251
HCT-116 = system: HCT-116
LOX IMVI = system: LOX IMVI
NCI/ADR-RES = system: NCI/ADR-RES
CAKI-1 = system: CAKI-1
HL-60 = system: HL-60
UACC-257 = system: UACC-257
SF-268 = system: SF-268
OVCAR-5 = system: OVCAR-5
MDA-N = system: MDA-N
MCF7 = system: MCF7
CCRF-CEM = system: CCRF-CEM
MOLT-4 = system: MOLT-4
IGROV-1 = system: IGROV-1
UO-31 = system: UO-31
SW-620 = system: SW-620
RPMI-8226 = system: RPMI-8226
SK-MEL-2 = system: SK-MEL-2
NCI-H23 = system: NCI-H23
HCT-15 = system: HCT-15
Malme-3M = system: Malme-3M
SF-539 = system: SF-539
DU-145 = system: DU-145
SF-295 = system: SF-295
NCI-H226 = system: NCI-H226
OVCAR-8 = system: OVCAR-8
M14 = system: M14
K562 = system: K562
OVCAR-3 = system: OVCAR-3
SK-MEL-28 = system: SK-MEL-28
SK-MEL-5 = system: SK-MEL-5
HCC 2998 = system: HCC 2998
COLO 205 = system: COLO 205
A549 = system: A549
SR = system: SR
NCI-H460 = system: NCI-H460

With `COc1ccc(/C=C2\N=C3Sc4c([nH]cnc4=O)N3C2=O)cc1` the GI50 (HOP-62) was > 100 µM (inactive), the GI50 (SNB-19) was > 100 µM (inactive) and the GI50 (SNB-75) was > 100 µM (inactive). For the same compound, the GI50 (HOP-92) was > 100 µM (inactive), the GI50 (Hs-578T) was > 100 µM (inactive) and the GI50 (MDA-MB-435) was > 100 µM (inactive). The GI50 (EKVX) was 78.9 µM (inactive), the GI50 (A498) was > 100 µM (inactive) and the GI50 (OVCAR-4) was > 100 µM (inactive). The GI50 (NCI-H522) was > 100 µM (inactive), the GI50 (HT-29) was > 100 µM (inactive) and the GI50 (MDA-MB-231) was > 100 µM (inactive). For the same compound, the GI50 (PC-3) was > 100 µM (inactive), the GI50 (TK-10) was > 100 µM (inactive) and the GI50 (786-0) was > 100 µM (inactive). The GI50 (T47D) was > 100 µM (inactive), the GI50 (KM12) was > 100 µM (inactive) and the GI50 (ACHN) was > 100 µM (inactive). The GI50 (SN12C) was > 100 µM (inactive), the GI50 (SK-OV-3) was > 100 µM (inactive) and the GI50 (RXF 393) was > 100 µM (inactive). For the same compound, the GI50 (U-251) was > 100 µM (inactive), the GI50 (HCT-116) was > 100 µM (inactive) and the GI50 (LOX IMVI) was > 100 µM (inactive). The GI50 (NCI/ADR-RES) was > 100 µM (inactive), the GI50 (CAKI-1) was > 100 µM (inactive) and the GI50 (HL-60) was > 100 µM (inactive). The GI50 (UACC-257) was > 100 µM (inactive), the GI50 (SF-268) was > 100 µM (inactive) and the GI50 (OVCAR-5) was > 100 µM (inactive). For the same compound, the GI50 (MDA-N) was > 100 µM (inactive), the GI50 (MCF7) was > 100 µM (inactive) and the GI50 (CCRF-CEM) was > 100 µM (inactive). For the same compound, the GI50 (MOLT-4) was > 100 µM (inactive), the GI50 (IGROV-1) was > 100 µM (inactive) and the GI50 (UO-31) was > 100 µM (inactive). For the same compound, the GI50 (SW-620) was > 100 µM (inactive), the GI50 (RPMI-8226) was > 100 µM (inactive) and the GI50 (SK-MEL-2) was > 100 µM (inactive). For the same compound, the GI50 (NCI-H23) was > 100 µM (inactive), the GI50 (HCT-15) was > 100 µM and the GI50 (Malme-3M) was > 100 µM (inactive). The GI50 (SF-539) was > 100 µM (inactive), the GI50 (DU-145) was > 100 µM (inactive) and the GI50 (SF-295) was > 100 µM (inactive). The GI50 (NCI-H226) was > 100 µM (inactive), the GI50 (OVCAR-8) was > 100 µM (inactive) and the GI50 (M14) was > 100 µM (inactive). The GI50 (K562) was > 100 µM (inactive), the GI50 (OVCAR-3) was > 100 µM (inactive) and the GI50 (SK-MEL-28) was > 100 µM (inactive). The GI50 (SK-MEL-5) was > 100 µM (inactive), the GI50 (HCC 2998) was 13.1 µM (inactive) and the GI50 (COLO 205) was > 100 µM (inactive). For the same compound, the GI50 (A549) was > 100 µM (inactive).

In the case of `CCP(=O)(CC)C(Cl)Cl`, the GI50 (HOP-62) is reported as > 100 µM (inactive), the GI50 (SNB-19) is reported as > 100 µM (inactive) and the GI50 (SNB-75) is reported as > 100 µM (inactive). For the same compound, the GI50 (HOP-92) was > 100 µM (inactive), the GI50 (Hs-578T) was > 100 µM (inactive) and the GI50 (MDA-MB-435) was > 100 µM (inactive). The GI50 (OVCAR-4) was > 100 µM (inactive), the GI50 (NCI-H522) was > 100 µM (inactive) and the GI50 (HT-29) was > 100 µM (inactive). The GI50 (MDA-MB-231) was > 100 µM (inactive), the GI50 (PC-3) was > 100 µM (inactive) and the GI50 (TK-10) was > 100 µM (inactive). For the same compound, the GI50 (T47D) was > 100 µM (inactive), the GI50 (ACHN) was > 100 µM (inactive) and the GI50 (SN12C) was > 100 µM (inactive). For the same compound, the GI50 (SK-OV-3) was > 100 µM (inactive), the GI50 (U-251) was > 100 µM (inactive) and the GI50 (HCT-116) was > 100 µM (inactive). The GI50 (LOX IMVI) was > 100 µM (inactive), the GI50 (NCI/ADR-RES) was > 100 µM (inactive) and the GI50 (CAKI-1) was > 100 µM (inactive). The GI50 (HL-60) was > 100 µM (inactive), the GI50 (UACC-257) was > 100 µM (inactive) and the GI50 (OVCAR-5) was > 100 µM (inactive). The GI50 (MDA-N) was > 100 µM (inactive), the GI50 (MCF7) was > 100 µM (inactive) and the GI50 (CCRF-CEM) was > 100 µM (inactive). For the same compound, the GI50 (MOLT-4) was > 100 µM (inactive), the GI50 (IGROV-1) was > 100 µM (inactive) and the GI50 (UO-31) was > 100 µM (inactive). For the same compound, the GI50 (SW-620) was > 100 µM (inactive), the GI50 (RPMI-8226) was > 100 µM (inactive) and the GI50 (SK-MEL-2) was > 100 µM (inactive). The GI50 (NCI-H23) was > 100 µM (inactive), the GI50 (HCT-15) was > 100 µM and the GI50 (SR) was > 100 µM (inactive). For the same compound, the GI50 (DU-145) was > 100 µM (inactive), the GI50 (SF-295) was > 100 µM (inactive) and the GI50 (NCI-H226) was > 100 µM (inactive). For the same compound, the GI50 (NCI-H460) was > 100 µM (inactive), the GI50 (OVCAR-8) was > 100 µM (inactive) and the GI50 (M14) was > 100 µM (inactive). For the same compound, the GI50 (K562) was > 100 µM (inactive), the GI50 (OVCAR-3) was > 100 µM (inactive) and the GI50 (SK-MEL-28) was > 100 µM (inactive). For the same compound, the GI50 (SK-MEL-5) was > 100 µM (inactive), the GI50 (HCC 2998) was > 100 µM (inactive) and the GI50 (COLO 205) was > 100 µM (inactive). For the same compound, the GI50 (A549) was > 100 µM (inactive).
